Reference: patent US20220211877A1, “COMPOUND FOR INTRAOPERATIVE MOLECULAR BIOIMAGING, METHOD OF MAKING THE SAME, USE THEREOF IN INTRAOPERATIVE MOLECULAR BIOIMAGING AND SURGICAL METHOD COMPRISING INTRAOPERATIVE MOLECULAR BIOIMAGING” (Klinikum rechts der lsar der Techischen Universität München, priority 2018, published 2022)
Where a SMILES comes first, the peptide text is derived from it. Side-chain parts run from the residue outwards. [ ]: non-standard residue; d: D form. The star is where a group is joined. IRDye800CW = CC1(C)C(/C=C/C2=C(Oc3ccc(S(=O)(=O)O)cc3)C(=C/C=C3/N(CCCCS(=O)(=O)O)c4ccc(S(=O)(=O)O)cc4C3(C)C)/CCC2)=[N+](CCCCCC(=O)*)c2ccc(S(=O)(=O)[O-])cc21; NMeK = CN[C@@H](CCCCN)C(=O)O; Ahx = NCCCCCC(=O)O

Legend:
[1] = biodistribution by fluorescence intensity in HNSCC PDX mice
Method: Relying on fluorescence intensity measurements, the distribution and accumulation of FRX103 in the organism was determined over the time period shown.

[2] = biodistribution and nonspecific binding in control animals (control TX, sham TX, unoperated); conditions: for renal clearance: 6 h after injection
Method: Similarly, healthy oral epithelium was transplanted for control experiments.
Control experiments were performed with sham operations and transplantation with healthy control tissue, which were imaged with FRX110 and FRX109 as the control tracer.
The specificity of the binding was investigated in the in vivo model with the control tracer FRX109. FRX109 was visualized in mice with a sham graft (sham TX) of human carcinoma tissue (no tissue was transplanted).

αvβ8 = αvβ8 (Homo sapiens, UniProt P06756+P26012); test: solid-phase integrin binding assay; conditions: n = 2
Sequence of αvβ8 (P06756 31-889 limits assumed): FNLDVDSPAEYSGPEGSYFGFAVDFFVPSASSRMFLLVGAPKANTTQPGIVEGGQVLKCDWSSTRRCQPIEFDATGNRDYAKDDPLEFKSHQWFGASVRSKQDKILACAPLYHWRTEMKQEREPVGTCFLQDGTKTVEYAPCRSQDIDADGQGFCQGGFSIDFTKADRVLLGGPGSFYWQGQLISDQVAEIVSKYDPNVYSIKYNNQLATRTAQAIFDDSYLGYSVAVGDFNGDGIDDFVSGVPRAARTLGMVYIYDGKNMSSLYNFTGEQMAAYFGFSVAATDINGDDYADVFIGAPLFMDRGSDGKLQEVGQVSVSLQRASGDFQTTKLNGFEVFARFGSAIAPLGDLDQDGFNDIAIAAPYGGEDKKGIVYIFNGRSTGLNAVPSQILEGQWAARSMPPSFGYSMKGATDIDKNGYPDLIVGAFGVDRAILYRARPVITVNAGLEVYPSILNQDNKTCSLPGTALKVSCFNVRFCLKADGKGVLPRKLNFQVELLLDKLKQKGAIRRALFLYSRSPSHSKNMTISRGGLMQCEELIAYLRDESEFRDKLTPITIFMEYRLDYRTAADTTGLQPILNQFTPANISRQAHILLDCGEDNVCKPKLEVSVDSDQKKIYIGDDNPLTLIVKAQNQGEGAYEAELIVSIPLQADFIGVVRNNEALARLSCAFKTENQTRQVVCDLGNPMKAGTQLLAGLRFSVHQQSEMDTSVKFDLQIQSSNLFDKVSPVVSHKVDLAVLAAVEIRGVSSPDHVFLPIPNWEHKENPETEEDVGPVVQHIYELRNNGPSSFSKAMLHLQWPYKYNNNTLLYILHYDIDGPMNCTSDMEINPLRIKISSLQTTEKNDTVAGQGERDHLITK
Sequence of αvβ8 (P06756 891-992 partner limits assumed): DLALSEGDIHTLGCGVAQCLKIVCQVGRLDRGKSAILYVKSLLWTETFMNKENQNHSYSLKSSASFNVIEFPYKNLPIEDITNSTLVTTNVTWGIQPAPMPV
Sequence of αvβ8 (P26012 43-684 limits assumed): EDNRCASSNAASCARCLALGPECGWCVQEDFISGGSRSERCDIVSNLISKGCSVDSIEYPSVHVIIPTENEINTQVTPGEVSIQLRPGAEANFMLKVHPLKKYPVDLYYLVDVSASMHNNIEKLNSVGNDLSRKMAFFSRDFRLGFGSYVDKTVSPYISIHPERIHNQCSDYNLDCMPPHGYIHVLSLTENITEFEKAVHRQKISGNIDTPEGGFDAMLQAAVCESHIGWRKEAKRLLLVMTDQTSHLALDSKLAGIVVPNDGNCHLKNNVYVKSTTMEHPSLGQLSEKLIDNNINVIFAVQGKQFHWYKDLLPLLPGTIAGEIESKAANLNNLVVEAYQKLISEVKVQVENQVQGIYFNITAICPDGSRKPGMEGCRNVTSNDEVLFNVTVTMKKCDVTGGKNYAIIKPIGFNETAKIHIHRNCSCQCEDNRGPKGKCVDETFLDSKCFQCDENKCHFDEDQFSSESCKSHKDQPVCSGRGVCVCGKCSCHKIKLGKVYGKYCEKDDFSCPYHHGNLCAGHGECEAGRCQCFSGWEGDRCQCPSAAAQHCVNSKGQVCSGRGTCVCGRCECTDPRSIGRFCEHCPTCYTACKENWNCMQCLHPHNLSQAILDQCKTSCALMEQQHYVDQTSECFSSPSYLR

αvβ6 = αvβ6 (Homo sapiens, UniProt P06756+P18564); test: solid-phase integrin binding assay; conditions: n = 2
Sequence of αvβ6 (P06756 31-889 limits assumed): as the sequence (P06756 31-889 limits assumed) above
Sequence of αvβ6 (P06756 891-992 partner limits assumed): as the sequence (P06756 891-992 partner limits assumed) above
Sequence of αvβ6 (P18564 22-707 limits assumed): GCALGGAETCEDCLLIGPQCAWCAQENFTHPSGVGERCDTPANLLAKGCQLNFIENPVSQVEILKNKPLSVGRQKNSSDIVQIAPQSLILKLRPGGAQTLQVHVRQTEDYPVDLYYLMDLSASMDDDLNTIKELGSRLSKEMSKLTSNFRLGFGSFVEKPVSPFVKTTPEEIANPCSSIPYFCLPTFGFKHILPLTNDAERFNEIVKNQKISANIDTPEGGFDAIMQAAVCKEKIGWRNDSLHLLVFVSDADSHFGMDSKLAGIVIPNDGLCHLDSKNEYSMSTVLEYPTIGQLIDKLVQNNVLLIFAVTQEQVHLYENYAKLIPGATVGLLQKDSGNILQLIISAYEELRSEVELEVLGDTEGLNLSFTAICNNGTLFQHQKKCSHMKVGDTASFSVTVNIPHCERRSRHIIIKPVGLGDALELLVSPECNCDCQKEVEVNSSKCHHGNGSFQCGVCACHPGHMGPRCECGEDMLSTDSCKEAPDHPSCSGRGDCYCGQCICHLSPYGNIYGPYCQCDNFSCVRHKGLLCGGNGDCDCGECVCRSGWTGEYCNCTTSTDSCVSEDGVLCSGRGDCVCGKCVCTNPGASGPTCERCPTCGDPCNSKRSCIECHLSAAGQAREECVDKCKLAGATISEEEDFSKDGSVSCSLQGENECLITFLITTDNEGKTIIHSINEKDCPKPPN

α5β1 = α5β1 (Homo sapiens, UniProt P05556+P08648); test: solid-phase integrin binding assay; conditions: n = 2
Sequence of α5β1 (P08648 42-894 limits assumed): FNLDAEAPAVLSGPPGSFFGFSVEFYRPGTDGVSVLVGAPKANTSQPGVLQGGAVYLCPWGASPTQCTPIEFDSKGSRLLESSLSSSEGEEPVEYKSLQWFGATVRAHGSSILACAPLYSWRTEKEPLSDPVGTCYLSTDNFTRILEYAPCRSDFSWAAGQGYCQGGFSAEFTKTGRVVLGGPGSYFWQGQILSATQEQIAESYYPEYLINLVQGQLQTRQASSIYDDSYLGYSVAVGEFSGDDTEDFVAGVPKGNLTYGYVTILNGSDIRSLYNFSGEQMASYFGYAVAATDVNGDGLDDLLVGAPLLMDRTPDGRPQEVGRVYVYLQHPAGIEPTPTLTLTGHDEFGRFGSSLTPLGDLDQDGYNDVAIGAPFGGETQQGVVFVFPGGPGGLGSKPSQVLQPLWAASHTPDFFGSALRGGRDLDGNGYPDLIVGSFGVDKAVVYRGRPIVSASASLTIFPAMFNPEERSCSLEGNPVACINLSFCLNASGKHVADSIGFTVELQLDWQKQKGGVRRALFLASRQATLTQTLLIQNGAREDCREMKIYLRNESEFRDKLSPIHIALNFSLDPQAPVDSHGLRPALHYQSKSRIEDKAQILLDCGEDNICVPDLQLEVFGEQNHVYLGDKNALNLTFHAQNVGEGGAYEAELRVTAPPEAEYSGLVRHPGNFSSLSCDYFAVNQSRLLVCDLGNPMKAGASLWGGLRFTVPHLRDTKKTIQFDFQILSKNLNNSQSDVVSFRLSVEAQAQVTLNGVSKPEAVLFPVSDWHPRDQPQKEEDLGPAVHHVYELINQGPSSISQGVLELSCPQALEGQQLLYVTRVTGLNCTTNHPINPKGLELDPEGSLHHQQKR
Sequence of α5β1 (P08648 895-995 partner limits assumed): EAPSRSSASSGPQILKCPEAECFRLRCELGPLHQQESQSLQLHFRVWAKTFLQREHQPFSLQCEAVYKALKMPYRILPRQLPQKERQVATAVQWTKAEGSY
Sequence of α5β1 (P05556 21-728 limits assumed): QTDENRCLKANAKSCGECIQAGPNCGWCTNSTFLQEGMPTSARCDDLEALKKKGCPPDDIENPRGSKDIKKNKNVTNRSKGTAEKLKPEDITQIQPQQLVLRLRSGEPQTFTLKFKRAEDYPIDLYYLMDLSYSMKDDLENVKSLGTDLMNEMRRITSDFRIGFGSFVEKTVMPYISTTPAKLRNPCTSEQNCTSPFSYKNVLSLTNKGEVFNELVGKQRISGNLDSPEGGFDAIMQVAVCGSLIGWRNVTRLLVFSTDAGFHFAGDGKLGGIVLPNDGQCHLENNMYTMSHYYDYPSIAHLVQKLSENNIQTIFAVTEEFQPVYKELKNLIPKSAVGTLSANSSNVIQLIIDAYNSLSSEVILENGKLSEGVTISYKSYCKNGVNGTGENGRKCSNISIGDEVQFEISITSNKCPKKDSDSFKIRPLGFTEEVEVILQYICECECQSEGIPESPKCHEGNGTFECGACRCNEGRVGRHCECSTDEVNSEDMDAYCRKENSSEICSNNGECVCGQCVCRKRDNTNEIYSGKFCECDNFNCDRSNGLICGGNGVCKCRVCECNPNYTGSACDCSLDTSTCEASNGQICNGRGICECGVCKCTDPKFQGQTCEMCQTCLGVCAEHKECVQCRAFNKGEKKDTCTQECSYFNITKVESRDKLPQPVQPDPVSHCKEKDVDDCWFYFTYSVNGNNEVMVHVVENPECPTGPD

αvβ3 = αvβ3 (Homo sapiens, UniProt P05106+P06756); test: solid-phase integrin binding assay; conditions: n = 2
Sequence of αvβ3 (P06756 31-889 limits assumed): as the sequence (P06756 31-889 limits assumed) above
Sequence of αvβ3 (P06756 891-1048 partner limits assumed): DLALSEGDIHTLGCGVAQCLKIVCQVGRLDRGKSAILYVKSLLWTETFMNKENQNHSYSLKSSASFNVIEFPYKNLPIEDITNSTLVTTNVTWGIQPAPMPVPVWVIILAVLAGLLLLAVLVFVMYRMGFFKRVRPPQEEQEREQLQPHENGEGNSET
Sequence of αvβ3 (P05106 27-788): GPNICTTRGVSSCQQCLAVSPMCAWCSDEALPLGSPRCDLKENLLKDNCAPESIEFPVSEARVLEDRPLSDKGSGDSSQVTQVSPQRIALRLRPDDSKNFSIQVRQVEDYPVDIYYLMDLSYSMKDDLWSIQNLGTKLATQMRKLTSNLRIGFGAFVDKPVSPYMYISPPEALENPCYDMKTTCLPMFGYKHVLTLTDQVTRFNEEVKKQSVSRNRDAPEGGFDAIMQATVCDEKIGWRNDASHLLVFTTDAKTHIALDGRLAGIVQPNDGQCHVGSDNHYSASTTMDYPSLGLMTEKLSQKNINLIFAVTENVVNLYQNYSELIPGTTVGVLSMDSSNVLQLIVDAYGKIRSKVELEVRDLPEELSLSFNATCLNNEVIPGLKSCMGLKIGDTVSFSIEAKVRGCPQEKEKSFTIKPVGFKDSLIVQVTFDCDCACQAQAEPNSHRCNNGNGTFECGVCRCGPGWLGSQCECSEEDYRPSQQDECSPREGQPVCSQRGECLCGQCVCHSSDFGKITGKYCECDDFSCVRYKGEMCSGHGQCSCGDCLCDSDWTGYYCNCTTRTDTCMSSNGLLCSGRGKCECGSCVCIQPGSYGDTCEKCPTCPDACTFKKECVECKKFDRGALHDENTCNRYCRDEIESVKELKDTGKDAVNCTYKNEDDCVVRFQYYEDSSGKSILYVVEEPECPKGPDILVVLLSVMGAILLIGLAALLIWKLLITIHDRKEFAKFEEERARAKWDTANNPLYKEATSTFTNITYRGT

αIIbβ3 = αIIbβ3 (Homo sapiens, UniProt P05106+P08514); test: solid-phase integrin binding assay; conditions: n = 2
Method: (§1) The integrin binding affinity and selectivity profile of the compounds was determined by a solid-phase binding assay as previously described.^48

αvβ5 = αvβ5 (Homo sapiens, UniProt P06756+P18084); test: solid-phase integrin binding assay; conditions: n = 2
Method: as §1

invasive HNSCC tissue = test: molecular bioimaging in HNSCC PDX mouse model; format: in vivo, NOD/SCID mice
Method: An orthotopic HNSCC PDX (head and neck squamous cell carcinoma patient derived xenotransplant) mouse model was developed that allows the analysis of invasive, orthotropic human carcinoma tissue. HNSCC tissue samples were transplanted into the neck area of NOD/SCID mice. This provides epithelial derived carcinoma tissue in a mesenchymal tissue context to mimic the epithelial-mesenchymal interface between invasive carcinoma tissue and stroma. […]
Bioimgaing was performed relying on equipment described in ^42 using a 750 nm CW laser diode (BWF2-750-0, B & W Tek, Newark, Del., USA) with a maximum power of 300 mW was used to excite the fluorophores. […] The laser power was measured at a working distance of 15 cm at 85 mW/cm 2, which is lower than the maximum permissible exposure according to the standard of the American National Standards Institute (ANSI). A short-pass filter (E700SP, Chroma Technology, Rockingham, Vt., USA) was used to eliminate component of the field illumination NIRF signal to preclude interference between the fluorescence detection field and the field illumination light path (F1). […]
The measurements of the average fluorescence intensity/pixels were made in two regions of interests (ROIs). […]
The quotient ROI1/ROI2 of the average fluorescence intensity/pixel is given as tumor tissue to background ratio (TBR). […]

OVMZ6 cells = test: cell binding experiment, fluorescence microscopy; format: cell-based, human; conditions: fixed OVMZ6 cells (low αvβ6, high αvβ3), 10 μM
Excerpt: (§2) Human OSCC cell lines HN was purchased from the German Collection of Microorganisms and Cell Cultures, Braunschweig, Germany (DSMZ no. ACC 417 (HN) The HN cell line was established from a cervical lymph node metastasis of an invasive squamous cell carcinoma of the soft palate. The metastasis occurred 7 years after treatment of the primary tumour and metastasized to the lung and brain. ^49 As control cells, we used the human ovarian cancer cell line OVMZ6 with low integrin avb6 and high integrin αvβ3 expression. ^50 All cells were cultivated in Dulbecco's Modified Eagle's Medium (DMEM) (Sigma-Aldrich, St. Louis, Mo., USA), supplemented with 10% (v/v) fetal calf serum (FCS) (Gibco, Lifelechnologies™, Carlsbad, Calif., USA).
(§3) HN and OVMZ6 cells were cultivated for 24 h on fibronectin-coated microchamber slides at a density of 25×10^3/well, thereafter fixed in 2% (w/v) PFA for 15 min at r.t. and washed in PBS. The Cy5.5-conjugated compound OM_1231, dissolved in PBS, 5% (v/v) dimethyl sulfoxide (DMSO), was applied at a final concentration of 10 μM for 1 h at r.t., followed by 3 washes in PBS. […] As control peptide served the non-binding cycl(R^betaADfK) labelled via lysine side-chain NH2 group with Cy5.5 fluorescent dye (code OM_1224). After the incubation period, cells were washed 6 times in PBS and slides mounted. Fluorescence signal intensity was detected by the microscope Zeiss LSM 700 (Zeiss) as described above. Images were merged by applying for the fluorescence image the LUT “blue to red”: low intensity: blue; medium intensity: green; and high intensity: red.

HN cells = test: cell binding experiment, fluorescence microscopy; format: cell-based, human; conditions: for fluorescence signal intensity on cells: fixed HN cells, 10 μM, 1 h at r.t.
Excerpt: as §2, §3

[3] = 0-24 h post injectionem, FIG. 5b

With CC(C)C[C@@H]1NC(=O)[C@H](CC(=O)O)NC(=O)CNC(=O)[C@H](CCCNC(=N)N)NC(=O)[C@H](Cc2ccccc2)NC(=O)[C@H](CCCCNC(=O)CCCCCNC(=O)CCCCC[N+]2=C(/C=C/C3=CC(=C/C=C4/N(C)c5ccc6ccccc6c5C4(C)C)/CCC3)C(C)(C)c3c2ccc2ccccc32)N(C)C(=O)[C@H]2CCCN2C(=O)[C@H](Cc2ccccc2)NC(=O)[C@H](C)NC1=O [FRX103, cyc(FRGDLAFp(NMe)K(Ahx-Cy7.5))] the “time p.i. of best ratio between specific signal and background signal” value ([1]; i.v., HNSCC PDX mice) was 24 h, the “accumulation in the area of carcinoma tissue” value ([1]; i.v., up to 24 h p.i., FIG. 5a) was “constant accumulation” and the “elimination after 24 h” value ([1]; mouse, in vivo, iv) was “does not show any elimination”. The “nonspecific accumulation in the area of transplantation” value ([2]; control TX (healthy epithelial grafting)) was “no nonspecific accumulation” and the “signal in liver and pancreas” value ([2]; mouse, in vivo) was “persistent signal”.
With CC(C)C[C@@H]1NC(=O)[C@H](CC(=O)O)NC(=O)[C@H](C)NC(=O)[C@H](CCCNC(=N)N)NC(=O)[C@H](Cc2ccccc2)NC(=O)[C@H](CCCCNC(=O)CCCCCNC(=O)CCCCC[N+]2=C(/C=C/C3=C(Oc4ccc(S(=O)(=O)O)cc4)C(=C/C=C4/N(CCCCS(=O)(=O)O)c5ccc(S(=O)(=O)O)cc5C4(C)C)/CCC3)C(C)(C)c3cc(S(=O)(=O)[O-])ccc32)N(C)C(=O)[C@H]2CCCN2C(=O)[C@H](Cc2ccccc2)NC(=O)[C@H](C)NC1=O [FRX109, cyc(FRADLAFp(NMe)K(Ahx-IRDye ® 800CW))] (cyclo(FRADLAF[dP][NMeK]([Ahx-IRDye800CW]))) the IC50 (αvβ8) was over 4000 nM, the IC50 (αvβ6) was 122 ± 12 nM and the IC50 (α5β1) was over 1000 nM. The IC50 (αvβ3) was over 10000 nM, the renal clearance ([2]; FIG. 5c) was “good renal clearance” and the IC50 (αIIbβ3) was over 1000 nM. The IC50 (αvβ5) was over 10000 nM.
With CC(C)C[C@@H]1NC(=O)[C@H](CC(=O)O)NC(=O)CNC(=O)[C@H](CCCNC(=N)N)NC(=O)[C@H](Cc2ccccc2)NC(=O)[C@H](CCCCNC(=O)CCCCCNC(=O)CCCCC[N+]2=C(/C=C/C3=C(Oc4ccc(S(=O)(=O)O)cc4)C(=C/C=C4/N(CCCCS(=O)(=O)O)c5ccc(S(=O)(=O)O)cc5C4(C)C)/CCC3)C(C)(C)c3cc(S(=O)(=O)[O-])ccc32)N(C)C(=O)[C@H]2CCCN2C(=O)[C@H](Cc2ccccc2)NC(=O)[C@H](C)NC1=O [FRX110, cyc(FRGDLAFp(NMe)K(Ahx-IRDye ® 800CW))] the IC50 (αvβ8) was 129 ± 36 nM, the IC50 (αvβ6) was 2.2 ± 0.2 nM and the TBR [1, 3] was 1.0. For the same compound, the “unspecific accumulation or binding” value [1, 3] was “does not reveal unspecific accumulation or binding”, the “time to elimination of unbound compound via the renal system” value ([1]; i.v.) was at most 24 h and the IC50 (α5β1) was 37 ± 6 nM. For the same compound, the IC50 (αvβ3) was 408 ± 61 nM, the renal clearance ([2]; FIG. 5c) was “good renal clearance” and the “tissue to background (TBR) ratio” value ([2]; control animals, FIG. 5c) was “low”. The unspecific tracer enhancement ([2]; control animals, FIG. 5c) was “without unspecific tracer enhancement”, the “binding to invasive growing carcinoma xenotransplants” value (invasive HNSCC tissue; 1st to 12th week p. TX) was “specific binding” and the “tissue to background (TBR) ratio” value (invasive HNSCC tissue; 5th week p. TX, i.v. tail vein, FIG. 4a) was “high”. The IC50 (αvβ5) was over 10000 nM.
In the case of CC(C)C[C@@H]1NC(=O)[C@H](CC(=O)O)NC(=O)CNC(=O)[C@H](CCCNC(=N)N)NC(=O)[C@H](Cc2ccccc2)NC(=O)[C@H](CCCCNC(=O)CCCCCNC(=O)CCCCC[N+]2=C(/C=C/C=C/C=C3/N(C)c4ccc5ccccc5c4C3(C)C)C(C)(C)c3c2ccc2ccccc32)N(C)C(=O)[C@H]2CCCN2C(=O)[C@H](Cc2ccccc2)NC(=O)[C@H](C)NC1=O [OM1231, cyc(FRGDLAFp(NMe)K(Ahx-Cy5.5))], the IC50 (αvβ8) is reported as 234 ± 33 nM, the IC50 (αvβ6) is reported as 27 ± 2 nM and the “recognition of cellular integrin αvβ3” value (OVMZ6 cells) is reported as “did not recognize cellular integrin αvβ3”. The “fluorescence signal intensity after blocking” value (HN cells; HN cells, unlabeled OM_1204 at 10-fold molar excess 1 h prior to OM_1231 (10 μM)) was “strong reduction in fluorescence signal intensity” and the “fluorescence signal intensity on cells” value (HN cells) was “strong fluorescence signal intensity on cell membranes”.
With “cyc(R-betaAla-D-f-K(Ahx-Cy5.5)) [OM1224]” the “fluorescence signal intensity on cells” value (HN cells) was “did not result in fluorescence signal intensity”.
